#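 Growth conditions: 96-well plates. Treatment: test compound, 48 hours, 5 concentrations. Analysis: linear interpolation between bracketing concentrations; unreached endpoints set to highest concentration. TGI marks complete inhibition of growth.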
# Assays:
# Test in all cases: NCI-60 cell line screen, 48 h
# HOP-92 NSCLC = tested on: HOP-92 NSCLC
# UACC-257 melanoma = tested on: UACC-257 melanoma
# OVCAR-8 ovarian = tested on: OVCAR-8 ovarian
# ACHN renal = tested on: ACHN renal
# SK-OV-3 ovarian = tested on: SK-OV-3 ovarian
# BT-549 breast = tested on: BT-549 breast
# OVCAR-3 ovarian = tested on: OVCAR-3 ovarian
# SK-MEL-5 melanoma = tested on: SK-MEL-5 melanoma
# M14 melanoma = tested on: M14 melanoma
# TK-10 renal = tested on: TK-10 renal
# K-562 leukemia = tested on: K-562 leukemia
# EKVX NSCLC = tested on: EKVX NSCLC
# HT29 colon = tested on: HT29 colon
# CCRF-CEM leukemia = tested on: CCRF-CEM leukemia
# HS 578T breast = tested on: HS 578T breast
# HL-60(TB) leukemia = tested on: HL-60(TB) leukemia
# KM12 colon = tested on: KM12 colon
# SK-MEL-2 melanoma = tested on: SK-MEL-2 melanoma
# SF-539 CNS = tested on: SF-539 CNS
# MDA-N = tested on: MDA-N
# DU-145 prostate = tested on: DU-145 prostate
# HOP-62 NSCLC = tested on: HOP-62 NSCLC
# CAKI-1 renal = tested on: CAKI-1 renal
# COLO 205 colon = tested on: COLO 205 colon
# PC-3 prostate = tested on: PC-3 prostate
# 786-0 renal = tested on: 786-0 renal
# HCC-2998 colon = tested on: HCC-2998 colon
# SK-MEL-28 melanoma = tested on: SK-MEL-28 melanoma
# SF-268 CNS = tested on: SF-268 CNS
# LOX IMVI melanoma = tested on: LOX IMVI melanoma
# HCT-116 colon = tested on: HCT-116 colon
# MOLT-4 leukemia = tested on: MOLT-4 leukemia
# SN12C renal = tested on: SN12C renal
# A498 renal = tested on: A498 renal
# HCT-15 colon = tested on: HCT-15 colon
# NCI/ADR-RES ovarian = tested on: NCI/ADR-RES ovarian
# T-47D breast = tested on: T-47D breast
# OVCAR-5 ovarian = tested on: OVCAR-5 ovarian
# NCI-H460 lung = tested on: NCI-H460 lung
# OVCAR-4 ovarian = tested on: OVCAR-4 ovarian
# IGROV1 ovarian = tested on: IGROV1 ovarian
# MDA-MB-231 breast = tested on: MDA-MB-231 breast
# A549 NSCLC = tested on: A549 NSCLC
# SNB-19 CNS = tested on: SNB-19 CNS
# UO-31 renal = tested on: UO-31 renal
# NCI-H23 lung = tested on: NCI-H23 lung
# MCF7 breast = tested on: MCF7 breast
# SF-295 CNS = tested on: SF-295 CNS
# SW-620 colon = tested on: SW-620 colon
# SNB-75 CNS = tested on: SNB-75 CNS
# RPMI-8226 leukemia = tested on: RPMI-8226 leukemia
# NCI-H226 lung = tested on: NCI-H226 lung
# MDA-MB-435 = tested on: MDA-MB-435
# NCI-H522 lung = tested on: NCI-H522 lung
# UACC-62 melanoma = tested on: UACC-62 melanoma
# U251 CNS = tested on: U251 CNS
# MALME-3M melanoma = tested on: MALME-3M melanoma
# RXF 393 renal = tested on: RXF 393 renal
compound,measurement,setting,value
CC(=O)[C@H]1CC[C@@H]2[C@]1(C)CC=C1[C@]23C=C[C@]2(C[C@@H](O)CC[C@]12C)C(C(=O)O)C3C(=O)O (stereo not given in full),TGI,HOP-92 NSCLC,> 100 µM
same,TGI,UACC-257 melanoma,> 100 µM
same,TGI,OVCAR-8 ovarian,> 100 µM
same,TGI,ACHN renal,> 100 µM
same,TGI,SK-OV-3 ovarian,> 100 µM
same,TGI,BT-549 breast,> 100 µM
same,TGI,OVCAR-3 ovarian,> 100 µM
same,TGI,SK-MEL-5 melanoma,> 100 µM
same,TGI,M14 melanoma,> 100 µM
same,TGI,TK-10 renal,> 100 µM
same,TGI,K-562 leukemia,> 100 µM
same,TGI,EKVX NSCLC,> 100 µM
same,TGI,HT29 colon,> 100 µM
same,TGI,CCRF-CEM leukemia,> 100 µM
same,TGI,HS 578T breast,> 100 µM
same,TGI,HL-60(TB) leukemia,> 100 µM
same,TGI,KM12 colon,> 100 µM
same,TGI,SK-MEL-2 melanoma,> 100 µM
same,TGI,SF-539 CNS,> 100 µM
same,TGI,MDA-N,> 100 µM
same,TGI,DU-145 prostate,> 100 µM
same,TGI,HOP-62 NSCLC,> 100 µM
same,TGI,CAKI-1 renal,> 100 µM
same,TGI,COLO 205 colon,> 100 µM
same,TGI,PC-3 prostate,> 100 µM
same,TGI,786-0 renal,> 100 µM
same,TGI,HCC-2998 colon,> 100 µM
same,TGI,SK-MEL-28 melanoma,> 100 µM
same,TGI,SF-268 CNS,> 100 µM
same,TGI,LOX IMVI melanoma,> 100 µM
same,TGI,HCT-116 colon,> 100 µM
same,TGI,MOLT-4 leukemia,> 100 µM
same,TGI,SN12C renal,> 100 µM
same,TGI,A498 renal,> 100 µM
same,TGI,HCT-15 colon,> 100 µM
same,TGI,NCI/ADR-RES ovarian,> 100 µM
same,TGI,T-47D breast,> 100 µM
same,TGI,OVCAR-5 ovarian,> 100 µM
same,TGI,NCI-H460 lung,> 100 µM
same,TGI,OVCAR-4 ovarian,> 100 µM
same,TGI,IGROV1 ovarian,> 100 µM
same,TGI,MDA-MB-231 breast,> 100 µM
same,TGI,A549 NSCLC,> 100 µM
same,TGI,SNB-19 CNS,> 100 µM
same,TGI,UO-31 renal,> 100 µM
same,TGI,NCI-H23 lung,> 100 µM
same,TGI,MCF7 breast,> 100 µM
same,TGI,SF-295 CNS,> 100 µM
same,TGI,SW-620 colon,> 100 µM
same,TGI,SNB-75 CNS,> 100 µM
same,TGI,RPMI-8226 leukemia,> 100 µM
same,TGI,NCI-H226 lung,> 100 µM
same,TGI,MDA-MB-435,> 100 µM
same,TGI,NCI-H522 lung,> 100 µM
same,TGI,UACC-62 melanoma,> 100 µM
same,TGI,U251 CNS,> 100 µM
same,TGI,MALME-3M melanoma,> 100 µM
CN(CCCNC(=O)c1[nH]nc2c1ccc1ccccc12)CCCNC(=O)c1[nH]nc2c1ccc1ccccc12,TGI,HOP-92 NSCLC,28.3 µM
same,TGI,UACC-257 melanoma,16.9 µM
same,TGI,OVCAR-8 ovarian,30.9 µM
same,TGI,ACHN renal,31.4 µM
same,TGI,SK-OV-3 ovarian,34.2 µM
same,TGI,BT-549 breast,29.4 µM
same,TGI,OVCAR-3 ovarian,29 µM
same,TGI,SK-MEL-5 melanoma,17 µM
same,TGI,M14 melanoma,20.1 µM
same,TGI,TK-10 renal,31.8 µM
same,TGI,EKVX NSCLC,38.8 µM
same,TGI,HT29 colon,34.6 µM
same,TGI,CCRF-CEM leukemia,29.4 µM
same,TGI,HS 578T breast,33.5 µM
same,TGI,HL-60(TB) leukemia,10.4 µM
same,TGI,KM12 colon,39.7 µM
same,TGI,SK-MEL-2 melanoma,23.6 µM
same,TGI,SF-539 CNS,24 µM
same,TGI,MDA-N,4.52 µM
same,TGI,DU-145 prostate,31.8 µM
same,TGI,HOP-62 NSCLC,34.6 µM
same,TGI,CAKI-1 renal,33.6 µM
same,TGI,COLO 205 colon,10.9 µM
same,TGI,PC-3 prostate,27.9 µM
same,TGI,786-0 renal,22.9 µM
same,TGI,HCC-2998 colon,4.13 µM
same,TGI,SK-MEL-28 melanoma,4.54 µM
same,TGI,SF-268 CNS,28.1 µM
same,TGI,LOX IMVI melanoma,25.9 µM
same,TGI,HCT-116 colon,25.2 µM
same,TGI,MOLT-4 leukemia,26.2 µM
same,TGI,SN12C renal,30.1 µM
same,TGI,A498 renal,31.9 µM
same,TGI,HCT-15 colon,31.2 µM
same,TGI,NCI/ADR-RES ovarian,> 100 µM
same,TGI,T-47D breast,36.1 µM
same,TGI,OVCAR-5 ovarian,37.2 µM
same,TGI,NCI-H460 lung,38 µM
same,TGI,OVCAR-4 ovarian,37.4 µM
same,TGI,IGROV1 ovarian,30.9 µM
same,TGI,MDA-MB-231 breast,23.4 µM
same,TGI,A549 NSCLC,37.6 µM
same,TGI,SNB-19 CNS,37.6 µM
same,TGI,UO-31 renal,31.4 µM
same,TGI,NCI-H23 lung,33 µM
same,TGI,RXF 393 renal,30.5 µM
same,TGI,MCF7 breast,28.7 µM
same,TGI,SF-295 CNS,32.5 µM
same,TGI,SW-620 colon,35.2 µM
same,TGI,SNB-75 CNS,31.3 µM
same,TGI,NCI-H226 lung,30.7 µM
same,TGI,MDA-MB-435,7.71 µM
same,TGI,NCI-H522 lung,30.8 µM
same,TGI,UACC-62 melanoma,21.6 µM
same,TGI,U251 CNS,28.4 µM
same,TGI,MALME-3M melanoma,22.4 µM
CC(=O)OC1CC[C@@]2(C)C(=CC[C@@H]3[C@@H]2CC[C@]2(C)Nc4c(cnn4-c4ccc(F)cc4)C[C@@H]32)C1 (stereo not given in full),TGI,HOP-92 NSCLC,> 100 µM
same,TGI,UACC-257 melanoma,> 100 µM
same,TGI,OVCAR-8 ovarian,> 100 µM
same,TGI,ACHN renal,> 100 µM
same,TGI,SK-OV-3 ovarian,> 100 µM
same,TGI,BT-549 breast,> 100 µM
same,TGI,OVCAR-3 ovarian,> 100 µM
same,TGI,SK-MEL-5 melanoma,> 93.9 µM
same,TGI,M14 melanoma,> 100 µM
same,TGI,TK-10 renal,> 100 µM
same,TGI,K-562 leukemia,> 100 µM
same,TGI,EKVX NSCLC,> 100 µM
same,TGI,HT29 colon,> 100 µM
same,TGI,CCRF-CEM leukemia,> 100 µM
same,TGI,HS 578T breast,> 100 µM
same,TGI,HL-60(TB) leukemia,> 26 µM
same,TGI,KM12 colon,> 84.1 µM
same,TGI,SK-MEL-2 melanoma,> 73.6 µM
same,TGI,SF-539 CNS,17.2 µM
same,TGI,MDA-N,> 100 µM
same,TGI,DU-145 prostate,> 100 µM
same,TGI,HOP-62 NSCLC,17.8 µM
same,TGI,CAKI-1 renal,42.8 µM
same,TGI,COLO 205 colon,> 78.7 µM
same,TGI,PC-3 prostate,> 100 µM
same,TGI,786-0 renal,> 59.2 µM
same,TGI,HCC-2998 colon,> 100 µM
same,TGI,SK-MEL-28 melanoma,> 100 µM
same,TGI,SF-268 CNS,> 100 µM
same,TGI,LOX IMVI melanoma,> 58.6 µM
same,TGI,HCT-116 colon,> 50.5 µM
same,TGI,SN12C renal,> 100 µM
same,TGI,A498 renal,> 83.1 µM
same,TGI,HCT-15 colon,> 100 µM
same,TGI,NCI/ADR-RES ovarian,> 100 µM
same,TGI,T-47D breast,> 100 µM
same,TGI,OVCAR-5 ovarian,> 100 µM
same,TGI,NCI-H460 lung,> 100 µM
same,TGI,OVCAR-4 ovarian,> 100 µM
same,TGI,IGROV1 ovarian,> 100 µM
same,TGI,MDA-MB-231 breast,> 100 µM
same,TGI,A549 NSCLC,> 100 µM
same,TGI,SNB-19 CNS,> 100 µM
same,TGI,UO-31 renal,> 100 µM
same,TGI,NCI-H23 lung,> 100 µM
same,TGI,RXF 393 renal,11 µM
same,TGI,MCF7 breast,> 95.6 µM
same,TGI,SF-295 CNS,36.4 µM
same,TGI,SW-620 colon,> 100 µM
same,TGI,SNB-75 CNS,66.5 µM
same,TGI,RPMI-8226 leukemia,28.3 µM
same,TGI,NCI-H226 lung,> 100 µM
same,TGI,MDA-MB-435,> 100 µM
same,TGI,NCI-H522 lung,> 100 µM
same,TGI,UACC-62 melanoma,> 71.1 µM
same,TGI,U251 CNS,47.3 µM
same,TGI,MALME-3M melanoma,> 77.6 µM

# From PubChem BioAssay (NCI)
